Data taken from patent US4465676A, “16α Halogen substituted 3,17β-dihydroxy steroidal estrogens” (priority 1980, dated 1984).

Experiments:
[1] = target: T1, rat uterine cytosol (estrogen receptor) (Rattus norvegicus, UniProt P06211); experiment: Binding to rat uterine cytosol, dextran-coated charcoal
T1 construct: incubated with cytoplasm from the uteri of rats; from tissue; host or cells: uterine cytosol of ovariectomized rats
T1 sequence (P06211 1-600): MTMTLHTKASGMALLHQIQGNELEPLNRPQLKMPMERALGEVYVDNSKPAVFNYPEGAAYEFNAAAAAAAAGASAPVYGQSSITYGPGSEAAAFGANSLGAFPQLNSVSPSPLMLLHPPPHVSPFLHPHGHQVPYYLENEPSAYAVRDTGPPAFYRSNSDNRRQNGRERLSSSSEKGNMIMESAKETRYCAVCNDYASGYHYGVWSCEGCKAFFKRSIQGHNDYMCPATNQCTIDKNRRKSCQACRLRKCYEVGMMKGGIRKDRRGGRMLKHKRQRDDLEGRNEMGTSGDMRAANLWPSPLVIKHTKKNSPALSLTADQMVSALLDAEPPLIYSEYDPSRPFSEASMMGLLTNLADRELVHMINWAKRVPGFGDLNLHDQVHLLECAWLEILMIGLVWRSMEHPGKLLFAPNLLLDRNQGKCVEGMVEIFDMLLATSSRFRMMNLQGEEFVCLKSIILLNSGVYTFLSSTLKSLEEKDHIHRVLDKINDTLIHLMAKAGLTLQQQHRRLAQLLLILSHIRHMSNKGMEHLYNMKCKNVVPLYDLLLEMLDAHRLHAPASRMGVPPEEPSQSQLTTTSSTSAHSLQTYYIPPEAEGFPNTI
Protocol: Metab. […] The homogenate was centrifuged at 4000 g for 10 minutes and the resulting supernatant for 60 minutes at 150,000 g. […] Samples were incubated for 4 hours at 0° to 2° C. Free steroid was removed by addition of 250 μl of a suspension of 0.5 percent dextran-coated charcoal. The tubes were mixed and then centrifuged at […] for 10 minutes.

[2] = tested on: rat uterine cytosol (8S and 4S forms); experiment: Glycerol gradient sedimentation of labelled rat uterine cytosol; type: binding; conditions: glycerol gradients, with and without 0.4M KCl; DES 7×10^-7 M
Protocol: The analysis was performed with glycerol rather than the usual sucrose because a more pronounced 8S peak was obtained in the glycerol gradients with both ^3 H- and ^125 I-labeled estradiol. Rat uterine cytosol was prepared as described in Example 4. […] Separate tubes also contained 0.4M KCl. At the end of the incubation, free steroid was removed by adding the incubation mixture to a tube containing a 5-mg pellet of dextran-coated charcoal. After shaking for 5 to 10 minutes at 0° C., the charcoal was removed by centrifugation. […] Fractions of four drops were collected from the bottom of the tube. Control tubes containing cytosol mixed with ^14 C-labeled bovine serum albumin (BSA) as a marker were also analyzed. The sedimintation pattern is illustrated in FIG. 2. The low-salt 8S form (FIG. 2, Curve A) is totally transformed into the 4S form by 0.4M KCl (FIG. 2, Curve B).

[3] = target: T2, calf uterine estrogen receptor (Bos taurus, UniProt P49884); experiment: Saturation and Scatchard analysis of the estrogen receptor from calf uterus; type: binding; conditions: calf uterine cytosol
T2 construct: Fresh calf uteri obtained from a slaughterhouse; from tissue; host or cells: calf uterus, 150,000 x g cytosol from lyophilized powder
T2 sequence (P49884 1-596): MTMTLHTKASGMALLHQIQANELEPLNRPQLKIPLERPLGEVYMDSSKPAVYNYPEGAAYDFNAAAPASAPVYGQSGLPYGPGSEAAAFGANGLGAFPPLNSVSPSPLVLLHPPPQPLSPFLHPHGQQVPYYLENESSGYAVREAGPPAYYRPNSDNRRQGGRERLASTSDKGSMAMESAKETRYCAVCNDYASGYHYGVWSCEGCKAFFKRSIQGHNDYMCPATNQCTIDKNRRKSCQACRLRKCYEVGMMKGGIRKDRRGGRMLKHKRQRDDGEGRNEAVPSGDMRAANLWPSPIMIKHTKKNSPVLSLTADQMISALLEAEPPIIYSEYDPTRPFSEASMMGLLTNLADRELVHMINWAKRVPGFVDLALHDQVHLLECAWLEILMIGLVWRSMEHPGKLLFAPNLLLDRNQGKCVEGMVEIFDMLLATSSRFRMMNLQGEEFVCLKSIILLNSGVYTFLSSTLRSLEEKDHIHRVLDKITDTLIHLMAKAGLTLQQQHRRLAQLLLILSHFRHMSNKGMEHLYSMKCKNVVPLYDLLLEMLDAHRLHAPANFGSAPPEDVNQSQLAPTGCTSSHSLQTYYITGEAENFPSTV
Protocol: Fresh calf uteri obtained from a slaughterhouse were brought to the laboratory on ice, immediately trimmed of fat, and cut into small pieces; the pieces were frozen in liquid nitrogen and pulverized. The pulverized frozen tissue was lyophilized, and the desiccated powder was stored under vacuum in sealed vials at -80° C. The uterine powders were usually used within 1 month of pulverization. When needed, the powders were suspended in 0.1M Tris-HCl, pH 7.4/2.5 mM EDTA/5 mM dithiotreithol (TED buffer) at 2.5 mg/ml and homogenized at 0° C. in a Polytron homogenizer with two or three pulses at 15 seconds each. The homogenate was then centrifuged at 150,000×g for 60 minutes and the resulting supernatant (cytosol), containing approximately 1 mg of protein per ml, was used for binding studies on the estrogen receptor.
After the solvent was removed under a stream of N2, 250 μl of cytosol was added and the samples were incubated at 0°-2° C. overnight. The following morning, 250 μl of a 0.5% suspension of dextran-coated charcoal in TED buffer was added to the tubes which then were mixed and centrifuged at 5000×g for 10 minutes. The supernatant was assayed to determine bound radioactivity.
A saturation analysis of the estrogen receptor from calf uterus was conducted. […] Nonspecific binding, specific binding and total binding were determined in parallel incubations containing 0.7 μM DES.
A Scatchard analysis of the estrogen receptor from calf uterus was also conducted.

[4] = target: T3, estrogen receptor (calf uterine cytosol) (Bos taurus, UniProt P49884); experiment: Competition for the estrogen receptor in calf uterine cytosol; type: binding; conditions: 125I-E2 0.22 nM, 3H-E2 0.74 nM
T3 construct: Fresh calf uteri obtained from a slaughterhouse; from tissue; host or cells: calf uterus, 150,000 x g cytosol from lyophilized powder
T3 sequence (P49884 1-596): T2 sequence (P49884 1-596)
Protocol: Several compounds, at the two indicated concentrations, were allowed to compete with both labeled steroids for sites in calf uterine cytosol. Incubations were overnight at 4° C., and bound and free steroids were separated with dextran-coated charcoal.

[5] = target: T4, estrogen receptors (rat uterine cytosol) (Rattus norvegicus, UniProt P06211); experiment: Kinetic experiments and Scatchard analyses in rat uterine cytosol
T4 sequence (P06211 1-600): T1 sequence (P06211 1-600)

## C[C@]12CC[C@@H]3c4ccc(O)cc4CC[C@H]3[C@@H]1C[C@@H]([125I])[C@@H]2O [^125 I-E2, 16α-[^125 I]iodoestra-1,3,5(10)-triene-3,17β-diol]
[1]
  Radioactivity specifically bound, percent of added: 56%
[1]; 98 μg cytosol protein, 4 hours at 0° to 2° C., added 69,600 (125I) or 63,600 (3H) count/min
  Radioactivity Bound without DES: 42,600 count/min
[1]; bound without DES minus bound with DES
  Radioactivity specifically bound: 38,800 count/min
[1]; with 7×10^-7 M DES (nonspecific binding)
  Radioactivity Bound with DES: 3,800 count/min
[2]
  displacement by DES of radioactivity bound to the 8S and 4S forms: almost completely displaced by DES
[3]
  radioactivity bound (binding capacities): 122,000 cpm
[4]
  % B0 (initial specific binding of tracer alone): 40%
[5]
  Kd: 0.27 nM
